Earlier results on two substances are cited in patent US8410057B2, “Method of inducing T cell apoptosis by administering Altered Peptide Ligand” (Centro de Ingenieria Genetica y Biotecnologia, priority 2008, dated 2013).

The subject of this data set is monocytes and activated lamina propria T cells. To be noted: Crohn's disease patients; Van den Brande et al. 2003.

On to Etanercept, for which the induction of apoptosis result was “does not induce cell apoptosis”.
On to “infliximab: chimeric monoclonal antibody that binds to and neutralizes free and bound TNFα”, for which the induction of apoptosis result is “induce apoptosis of monocytes and activated lamina propria T cells”.
